What was measured:
[1] = system: healthy male volunteers; assay: Blood glucose before meals, before/after exhaustive exercise at 80% VO2max; type: in vivo, human; details: for blood glucose levels: plasma, Mean, n = 15; for effect of supplementation on blood glucose metabolism before meals: exhaustive exercise at 80% VO2max, versus placebo
Procedure: (§1) The present invention is based on supplementing cyclohexenone of Antrodia camphorata or placebo with no cyclohexenone of Antrodia camphorata to the subjects. The subjects were tested for the anti-fatigue function after supplementing cyclohexenone of Antrodia camphorata by measuring the amounts of fatigue indexes such as CPK, lactic acid, glucose, ammonia and free fatty acid before and after exhaustive exercise load at 80% VO2max.
(§2) Subjects were randomized to receive either cyclohexenone of Antrodia camphorata or placebo. Placebo contained substances such as cornstarch but no cyclohexenone of Antrodia camphorata. A double-blind, cross-over method was performed in this study where neither the evaluator nor the subject knew the content of the test substances. Based on rules of order balance, each subject have to receive the following tests: relaxing and receiving placebo (PR), exercising and receiving placebo (PE), relaxing and receiving cyclohexenone of Antrodia camphorata (DR), and exercising and receiving cyclohexenone of Antrodia camphorata (DE). Each test was carried out for one week, and took one week off before the next test until all 4 tests were performed in each subject. The exercise was performed on a treadmill with the load intensity at the measured 80% VO2max (7.61±1.87) until exhausted. Subjects received cyclohexenone of Antrodia camphorata or placebo after exercise in the amount of 0.2 g/kg body weight per day. […] Blood was collected in anticoagulant (such as EDTA) containing collection tubes, and was centrifuged at 3000 g. for 10 min to collect the plasma. The fatigue indexes such as CPK, lactic acid, glucose, ammonia and free fatty acid were analyzed accordingly. The physiological and biochemical changes before and after exercise with different supplements were compared and shown as values of mean and standard error (Mean±SEM). […] The details for the biochemical analysis and results are described below:
The measurement of blood glucose was performed with an automated blood analyzer Johnson & Johnson DT-600 II based on enzyme function and spectrophotometric method. Glucose oxidase was added into a defined amount of plasma for reaction, followed by addition of 4-aminoantipyrine and 1,7-dihydroxyphthalene. A red product was formed through function of peroxidase. The reactions are shown below:
The absorbance at 555 nm was measured to obtain the concentration of blood glucose.

[2] = system: healthy male volunteers; assay: Ammonia levels in blood before/after exhaustive exercise at 80% VO2max; type: in vivo, human; details: for blood ammonia levels: plasma, Mean, n = 15; for effect of supplementation after exercise on metabolism of blood ammonia: exhaustive exercise at 80% VO2max, versus placebo
Procedure: as §1, §2
The measurement of blood ammonia was performed with an automated blood analyzer Johnson & Johnson DT-60II based on the spectrophotometric method. Bromphenol blue was added into a defined amount of plasma to generate blue products. The reaction is shown below:
The absorbance at 605 nm was measured to obtain the concentration of blood ammonia.

[3] = Relax (DR), Post-exercise 0.5 h
[4] = Relax (DR), Post-exercise 120 h
[5] = Relax (DR), Post-exercise 168 h
[6] = exercise (DE), Post-exercise 0 h
[7] = exercise (DE), Post-exercise 0.5 h
[8] = exercise (DE), Post-exercise 1 h
[9] = exercise (DE), Post-exercise 2 h
[10] = exercise (DE), Post-exercise 24 h
[11] = exercise (DE), Post-exercise 48 h
[12] = exercise (DE), Post-exercise 72 h
[13] = exercise (DE), Post-exercise 120 h
[14] = exercise (DE), Post-exercise 168 h
[15] = exercise (DE), Prior to exercise
[16] = listed as cyclohexenone from Antrodia camphorata

## COC1=C(OC)C(O)C(C/C=C(\C)CC/C=C(\C)CCC=C(C)C)C(C)C1=O (stereo not shown) [cyclohexenone, 4-hydroxy-2,3-dimethoxy-6-methyl-5(3,7,11-trimethyl-dodeca-2,6,10-trienyl)-cyclohex-2-enone]
[1]; Relax (DR), Post-exercise 0 h
  blood glucose levels: 91.93 mg/dL
[1]; [3]
  blood glucose levels: 93.33 mg/dL
[1]; Relax (DR), Post-exercise 1 h
  blood glucose levels: 95.53 mg/dL
[1]; Relax (DR), Post-exercise 2 h
  blood glucose levels: 103.20 mg/dL
[1]; Relax (DR), Post-exercise 24 h
  blood glucose levels: 90.00 mg/dL
[1]; Relax (DR), Post-exercise 48 h
  blood glucose levels: 90.40 mg/dL
[1]; Relax (DR), Post-exercise 72 h
  blood glucose levels: 93.40 mg/dL
[1]; [4]
  blood glucose levels: 94.00 mg/dL
[1]; [5]
  blood glucose levels: 92.20 mg/dL
[1]; Relax (DR), Prior to exercise
  blood glucose levels: 91.73 mg/dL
[1]; [6]
  blood glucose levels: 103.43 mg/dL
[1]; [7]
  blood glucose levels: 88.71 mg/dL
[1]; [8]
  blood glucose levels: 93.86 mg/dL
[1]; [9]
  blood glucose levels: 101.07 mg/dL
[1]; [10]
  blood glucose levels: 94.43 mg/dL
[1]; [11]
  blood glucose levels: 89.21 mg/dL
[1]; [12]
  blood glucose levels: 93.00 mg/dL
[1]; [13]
  blood glucose levels: 93.29 mg/dL
[1]; [14]
  blood glucose levels: 92.93 mg/dL
[1]; [15]
  blood glucose levels: 89.21 mg/dL
[1]; [16]
  effect of supplementation on blood glucose metabolism before meals: no effect
[1]; listed as cyclohexenone of Antrodia camphorata
  effect of supplementation on blood glucose metabolism before meals: no significant difference
[2]; 24 h post exercise
  ammonia levels in DE group versus those before exercise: significantly lower
[2]; Relax (DR), Post-exercise 0 h
  blood ammonia levels: 55.60 µg/dL
[2]; [3]
  blood ammonia levels: 52.53 µg/dL
[2]; Relax (DR), Post-exercise 1 h
  blood ammonia levels: 57.47 µg/dL
[2]; Relax (DR), Post-exercise 2 h
  blood ammonia levels: 54.07 µg/dL
[2]; Relax (DR), Post-exercise 24 h
  blood ammonia levels: 30.33 µg/dL
[2]; Relax (DR), Post-exercise 48 h
  blood ammonia levels: 26.86 µg/dL
[2]; Relax (DR), Post-exercise 72 h
  blood ammonia levels: 25.20 µg/dL
[2]; [4]
  blood ammonia levels: 27.80 µg/dL
[2]; [5]
  blood ammonia levels: 28.57 µg/dL
[2]; Relax (DR), Prior to exercise
  blood ammonia levels: 39.20 µg/dL
[2]; [6]
  blood ammonia levels: 118.07 µg/dL
[2]; [7]
  blood ammonia levels: 57.64 µg/dL
[2]; [8]
  blood ammonia levels: 44.86 µg/dL
[2]; [9]
  blood ammonia levels: 37.53 µg/dL
[2]; [10]
  blood ammonia levels: 27.93 µg/dL
[2]; [11]
  blood ammonia levels: 20.93 µg/dL
[2]; [12]
  blood ammonia levels: 30.07 µg/dL
[2]; [13]
  blood ammonia levels: 23.21 µg/dL
[2]; [14]
  blood ammonia levels: 24.86 µg/dL
[2]; [15]
  blood ammonia levels: 45.86 µg/dL
[2]; [16]
  effect of supplementation after exercise on metabolism of blood ammonia: facilitates the metabolism of blood ammonia
[2]; listed as cyclohexenone from Antrodia camphorea
  effect of supplementation after exercise on metabolism of blood ammonia: beneficial to the recovery of creatine phosphate kinase and blood ammonia
[2]; post exercise at 2 h, p<0.05
  blood ammonia level, exercise group versus relax group receiving cyclohexenone: significantly superior

Reference: US7468392B1, “Anti-fatigue cyclohexenone compounds from antrodia camphorata” (Golden Biotechnology Corporation, priority 2007, dated 2008)
